Data from patent publication US11845770B2, “Ascaroside derivatives and methods of use” (California Institute of Technology, priority 2019, dated 2023).
“Also recorded” adds a separate entry of the source.

Key:
[1] = test system: esophageal eosinophil infiltrate; assay: Eosinophilic esophagitis model, L2-IL5 transgenic mouse sensitized/locally challenged with oxazolone; type: in vivo; conditions: L2-IL5 mice, OXA, Day 13; for eosinophilia of the esophagus (MBP staining, eosinophils/400× hpf): FIG. 24
Source text: From the observation of increased local expression of Interleukin-5 (IL-5) in EoE, transgenic mouse with targeted IL-5 expression to the esophageal squamous epithelia using the Epstein-Barr virus ED-L2 (EBV-ED-L2) gene promoter was generated. […] Even though squamous epithelial-specific IL-5 expression alone induced a significant esophageal eosinophilia encompassing the length of the esophagus, this eosinophilia was not accompanied by the density of histopathological changes such as eosinophilic micro abscesses characteristic of EoE. However, L2-IL5 transgenic mice upon sensitization and subsequent localized topical esophageal challenge with 4-ethoxymethylene-2-phenyl-2-oxazolin-5-one (OXA), a molecule known to induce T-helper cell (Th) type 2 responses, developed key histopathological features, including epithelial hyperplasia and eosinophilic micro abscesses that erupt through the epithelium into the esophageal lumen. Immunohistochemical staining of the eosinophil secondary granule major basic protein (MBP-1) was used to assess the induced esophageal eosinophilia and eosinophil degranulation. […] However, this response was small compared to the induced eosinophilia and associated degranulation that occurred in OXA-treated L2-IL5 transgenic mice (Masterson et al. Gut. 2014, 63, 1-25, which is hereby incorporated by reference in its entirety).
Prior to the OXA sensitization and topical local challenge model of delayed contact hypersensitivity, L2-IL5 transgenic mice were intraperitoneally (IP) injected with compounds or vehicle at 8, 4, and 2 days before sensitization at Day zero (schematic timeline in FIG. 20A). Compounds are prepared by dissolving in dimethyl sulfoxide (DMSO) as master stocks. Fresh working stock compounds in water are prepared for each day of injection and 100 μL of working stock or vehicle is IP injected per mouse. On day zero of the OXA sensitization/local challenge, a 2 cm×2 cm area of abdominal skin of anaesthetized experimental animals was shaved and OXA was applied to the skin surface (150 μl of a 3% (w/v) solution of OXA in 4:1 acetone-olive oil vehicle) to initiate the sensitization phase of the protocol. Sensitized mice then received topical OXA challenges of the esophagus by gavage on protocol Day 5, 8 and 12 after OXA sensitization with 100 μL of a 1% (w/v) solution of OXA in 30% ethanol/olive oil vehicle into the proximal esophagus. In addition, compounds or vehicle were IP injected on Day 5, 8, and 12 after OXA sensitization. All mice were sacrificed, and esophagus collected for histology 24 hours following the last OXA challenge on Day 12 (FIG. 20A). Immunohistochemical staining using a rat monoclonal anti-mouse MBP-1 antibody was conducted to highlight esophageal eosinophil infiltration and localized degranulation. A quantitative assessment of the esophageal eosinophil infiltrate in each group of mice was determined across nine high powered field (hpf) of view, three distal ([…] (Prox)) regions and expressed as group mean data of the eosinophil density (ie, eosinophils/400× hpf) (FIG. 20B). In addition, the eosinophilia is recorded according to the different (epithelial, lamina propia, and muscle) cell layers of the esophagus (FIG. 20C).
of NDM-X in water (20 μL of master stock in […] of water) and 0.231 μg/L of 1 in water (22 μL of master stock in 1078 μL of water) for each injection cohort that are […], respectively. On Day zero of the OXA sensitization/local challenge, a 2 cm×2 cm area of abdominal skin of anaesthetized experimental animals was shaved and OXA was applied to the skin surface to initiate the sensitization phase of the protocol. Sensitized mice then received topical OXA challenges of the esophagus by gavage on protocol Day 5, 8 and 12 after OXA sensitization in the proximal esophagus. […]

[2] = Stability in plasma (human); type: in vitro ADME; conditions: after 120 minutes, 37° C.
Protocol: The pH of plasma was adjusted to 7.4±0.1 if required. 1 mM intermediate solution was prepared by diluting 10 μL of the 10 mM stock solution of 1 with 90 μL DMSO; 1 mM intermediate of positive control propantheline bromide was prepared by diluting 10 μL of the stock solution with 90 μL ultra-pure water. 100 μM dosing solution was prepared by diluting 10 μL of the 1 mM intermediate solution with 90 μL of 45% MeOH/H2O. 98 μL of blank plasma was spiked with 2 μL of the 100 μM dosing solution to achieve a final concentration of 2 μM of the compound in duplicate. Samples were incubated at 37° C. in a water bath. At each time point (0, 10, 30, 60 and 120 min), 400 μL of stop solution (200 ng/mL tolbutamide plus 200 ng/mL labetalol in 50% ACN/MeOH) was added and was mixed thoroughly to precipitate protein. Sample plates were centrifuged at 4,000 rpm for 10 min. An aliquot of supernatant (100 μL) was transferred from each well and was mixed with 200 μL ultra-pure water. The samples were shaken at 800 rpm for about 10 min before LC/MS/MS analysis.
The remaining percentage of compound 1 (test article) after incubation was calculated according to the following equation.

[3] = High Dose IP (0.92 mg/kg 1; 0.77 mg/kg NDM-X), FIG. 21
[4] = Low Dose IP (0.014 mg/kg 1; 0.012 mg/kg NDM-X), FIG. 22

With `C[C@H](CC/C=C/C(=O)OC(C)(C)C)O[C@@H]1O[C@@H](C)[C@H](O)C[C@H]1O` [Compound 1, tert-butyl (2E,6R)-6-{[(2R,3R,5R,6S)-3,5-dihydroxy-6-methyloxan-2-yl]oxy}hept-2-enoate] the “eosinophilia of the esophagus, dose dependence” value ([1]; 0.092 mg/kg Mid Dose and 0.92 mg/kg High Dose IP, FIG. 23) was “dose-dependently inhibited eosinophilia in the epithelial, lamina propria, and muscle cell layers of the distal, middle, and proximal regions of the esophagus”, the “eosinophilia of the esophagus (MBP-1 staining, eosinophils/400× hpf)” value ([1]; 0.92 mg/kg High Dose IP, FIG. 23) was “statistically significant inhibition of the eosinophilic esophagitis observed in epithelial cell layer of distal, middle, and proximal regions of the esophagus; also recorded: statistically significant inhibition of the eosinophilia observed in the lamina propria and muscle cell layers of the middle section of the esophagus; also recorded: statistically significant reduction in eosinophilia observed in all cell layers of the middle and proximal sections as well as the whole esophagus” and the “eosinophilia of the esophagus (MBP-1 staining, eosinophils/400× hpf)” value [1, 3] was “statistically significant inhibition of eosinophilic esophagitis in the epithelial, lamina propria, and muscle layers of the distal, middle, and proximal cell layers of the esophagus; also recorded: more robust blocking of eosinophil esophagitis in the mouse model than compared to 0.77 mg/kg NDM-X High Dose”. The “eosinophilia of the esophagus (MBP-1 staining, eosinophils/400× hpf)” value [1, 4] was “statistically significant inhibition of the eosinophilia in all cell layers of the proximal region, epithelial cell layer of the distal region, and lamina propria cell layer of the middle section of the esophagus” and the “remaining percentage after incubation” value [2] was 86.5%.

With `C[C@H](CC/C=C/C(=O)O)O[C@@H]1O[C@@H](C)[C@H](O)C[C@H]1O` [ascr #7, reference compound] the “eosinophilia of the esophagus (MBP staining, eosinophils/400× hpf)” value ([1]; 0.012 mg/kg Low Dose IP, listed as NDM-X) was “slightly better than 0.77 mg/kg High Dose of NDM-X in inhibiting the eosinophilia; also recorded: statistically significant inhibition of the eosinophilia observed in the epithelial, lamina propria, and muscle cell layers of the distal, middle, and proximal regions of the esophagus”, the “eosinophilia of the esophagus (MBP staining, eosinophils/400× hpf)” value ([1]; 0.77 mg/kg High Dose IP) was “statistically significant reduction of the eosinophilia in the epithelial and lamina propria cell layers of distal, middle, and proximal regions of the esophagus” and the “eosinophilia of the esophagus (MBP-1 staining, eosinophils/400× hpf)” value [1, 3] was “statistically significant reduction in the eosinophilia in the lamina propria and muscle cell layers of the distal, middle, and proximal regions of the esophagus”. For the same compound, the “eosinophilia of the esophagus (MBP-1 staining, eosinophils/400× hpf)” value [1, 4] was “statistically significant inhibition of the eosinophilia in all cell layers of the proximal region, the muscle cell layers in all regions, and the epithelial cell layer of the distal and proximal regions” and the “remaining percentage after incubation” value [2] was 89.8%.
